US6689753B1, “β sheet breaker peptide analogs that inhibit β pleated sheet formation in amyloid β-peptide” (Axonyx, Inc., priority 1999, dated 2004)
Non-standard residues stand in square brackets, D forms with d. Residues, ends and D or L forms follow the SMILES beside them.

Experiments:
[1] = Peptide stability in rat plasma after i.v. bolus injection (radio-iodinated peptide, TCA precipitation, paper chromatography); format: in vivo; conditions: 15 minutes after i.v. injection
Experimental: d) Chirality changes. Replacement of the natural L-residue by the D-enantiomers dramatically increases resistance to proteolytic degradation. […] Indeed, approximately 90% of iAβ1 was degraded within minutes after intravenous injection. […] For detection, the peptide was radio-iodinated using standard procedures. Peptide stability was evaluated after i.v bolus injection in rats by precipitation with trichloroacetic acid. Quantitation of the intact peptide was also done by paper chromatography. […] In addition to the latter, D-residue are used after each proline amino acid, since it has been reported that a frequent endopeptidase cleavage site is after this residue by an enzyme known as prolylendopeptidase.

[2] = In vitro metabolism in rat liver microsomes; format: in vitro ADME; conditions: one hour of incubation at 37°, read-out: peptide remained intact
[3] = In vitro assay of peptide stability in fresh human plasma; format: in vitro ADME
Experimental: One of the major drawbacks for the use of peptides as drugs is their rapid proteolytic degradation in biological fluids and tissues. In in vitro experiments, iAβ5, (Seq LPFFD- also depicted as Leu Pro Phe Phe Asp herein) degraded very quickly in vitro after incubation with fresh human plasma. […] Since it was not possible to identify any metabolic fragments as a result of the proteolytic digestion, it seems likely that the degradation is mainly done by unspecific exopeptidases. This conclusion is supported by the finding that protection of amino- and carboxy-terminus of the peptide by acetylation and amidation, respectively, (to form Ac-iAβ5-Am—also depicted as Ac-Leu Pro Phe Phe Asp-Am herein) dramatically increases the stability of the peptide in vitro.
In vitro assays of peptide stability. Peptides were prepared as a 1 μg/μl solution in water. 20 μl of the peptide solution was diluted in 80 μl of fresh human plasma. The solution was incubated at 37° C. for different time periods and the reaction was stopped by adding a complete cocktail of protease inhibitors. The bulk of the plasma proteins (none of the peptide) were precipitated in cold methanol (mix/MeOH, 4/5, v/v) for one hour at −20° C. […] The peak area corresponding to the intact peptide was measured and compared with an equivalent sample incubated without plasma.

[4] = In vitro metabolism in human liver microsomes; format: in vitro ADME; conditions: one hour of incubation at 37°, read-out: peptide remained intact
[5] = test system: neuronal death induced by oligomeric Aβ; conditions: cell culture, prior art; cited from earlier work
Aβ = conditions: prior art; cited from earlier work
Aβ1-42 amyloid deposits = Aβ1-42 amyloid deposits (Homo sapiens, UniProt P05067); conditions: cited from earlier work
Chain of Aβ1-42 amyloid deposits (P05067 672-713): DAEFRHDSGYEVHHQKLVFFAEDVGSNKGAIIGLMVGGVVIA

PrP = PrP (Homo sapiens, UniProt P04156); conditions: cited from earlier work
Aβ1-40 = Aβ1-40 (Homo sapiens, UniProt P05067); test: In vitro amyloid formation assay, thioflavine T fluorescence; format: biochemical; conditions: Aβ incubated with peptide, ThT fluorescence, FIG. 5a
Chain of Aβ1-40 (P05067 672-711): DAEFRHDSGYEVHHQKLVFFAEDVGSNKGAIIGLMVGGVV

CC[C@@H](C)[C@@H](NC(=O)[C@H]1CCCN1C(=O)[C@H](NC(=O)[C@H]1CCCN1C(=O)[C@@H](Cc1ccc(O)cc1)NC(=O)[C@@H](Cc1ccccc1)NC(=O)[C@H]1CCCN1C(=O)[C@@H](CC(C)C)NC(=O)[C@@H](CC(=O)O)NC(=O)[C@H](N)CCCNC(=N)N)C(C)C)C(=O)N[C@H](CC(=O)O)C(=O)O (H-[dR][dD][dL][dP][dF][dY][dP][dV][dP][dI][dD]-OH; N-terminus and C-terminus assumed)
degradation in the plasma after injection [1]: virtually no degradation

CC(=O)N[C@@H](CC(C)C)C(=O)N1CCC[C@H]1C(=O)N[C@@H](Cc1ccccc1)C(=O)N[C@@H](Cc1ccccc1)C(=O)N[C@@H](CC(=O)O)C(N)=O [Ac-iAβ5-Am, Ac-Leu Pro Phe Phe Asp-Am] (Ac-LPFFD-NH2)
remaining at 1 h [2]: 76.3%
period the peptide remained stable in human plasma ([3]; human plasma, FIG. 4b): more than 24 hours
remaining at 1 h [4]: 81.5%

CC(C)C[C@H](N)C(=O)N1CCC[C@H]1C(=O)N[C@@H](Cc1ccccc1)C(=O)N[C@@H](Cc1ccccc1)C(=O)N[C@@H](CC(=O)O)C(=O)O [iAβ5, Leu Pro Phe Phe Asp] (H-LPFFD-OH)
prevention of neuronal death [5]: capable of preventing the neuronal death
inhibition of amyloid formation and dissolution of preformed fibrils in vitro (Aβ): inhibit peptide conformational changes that result in amyloid formation and also dissolved preformed fibrils
half-life at 0.2 μg/μl ([3]; fresh human plasma, 37° C., FIG. 4a, read-out: time in which fifty percent of the peptide disappeared in plasma): ~5 min
cerebral Aβ accumulation and deposition of fibrillar amyloid-like lesions (Aβ1-42 amyloid deposits; co-injection with Aβ1-42, rat brain, prior art): decreased cerebral Aβ accumulation and completely blocked the deposition of fibrillar amyloid-like lesions
inhibition of amyloid plaque formation (Aβ1-42 amyloid deposits; co-injection with Aβ1-42, rat): 50%
dissolution of preformed deposits (Aβ1-42 amyloid deposits; i.c. injection in animals already containing amyloid plaques): 67%

Asp Ala Pro Ala Ala Pro Ala Gly Pro ala Val Pro Val [iPrP13]
inhibitory activity on PrP conformational change among a set of β-sheet breaker peptides (PrP): showed the greatest activity

Aβ18-21: short Aβ fragment (VFFA; Amyloid-beta protein 42; UniProt P05067 689-692, looked up, fragment)
activity in inhibiting amyloid formation (fibrillogenesis) (Aβ1-40): no effect on fibrillogenesis or slightly increased amyloid formation

GYLTVAAVFRG [CP2, unrelated control peptide]
activity in inhibiting amyloid formation (fibrillogenesis) (Aβ1-40): no effect on fibrillogenesis or slightly increased amyloid formation

ISEVKMDAEF [CP10, unrelated control peptide]
activity in inhibiting amyloid formation (fibrillogenesis) (Aβ1-40): no effect on fibrillogenesis or slightly increased amyloid formation

RDLPFYPVPID [iAβ1]
inhibition of amyloid formation and dissolution of preformed fibrils in vitro (Aβ): inhibit peptide conformational changes that result in amyloid formation and also dissolved preformed fibrils

VHVSEEGTEPA [CP1, unrelated control peptide]
activity in inhibiting amyloid formation (fibrillogenesis) (Aβ1-40): no effect on fibrillogenesis or slightly increased amyloid formation
